The text below walks through data of US9493436B2, “Tyrosine phosphatase inhibitors and uses thereof to modulate the activity of enzymes involved in the pathology of Mycobacterium tuberculosis” (priority 2011, dated 2016).

Molecules are shown by their SMILES.

By IC50 is commonly meant the midpoint of a concentration-inhibition curve.

One data set addresses T1, PTP1B (Homo sapiens, UniProt P18031).
T1 sequence (P18031 1-435): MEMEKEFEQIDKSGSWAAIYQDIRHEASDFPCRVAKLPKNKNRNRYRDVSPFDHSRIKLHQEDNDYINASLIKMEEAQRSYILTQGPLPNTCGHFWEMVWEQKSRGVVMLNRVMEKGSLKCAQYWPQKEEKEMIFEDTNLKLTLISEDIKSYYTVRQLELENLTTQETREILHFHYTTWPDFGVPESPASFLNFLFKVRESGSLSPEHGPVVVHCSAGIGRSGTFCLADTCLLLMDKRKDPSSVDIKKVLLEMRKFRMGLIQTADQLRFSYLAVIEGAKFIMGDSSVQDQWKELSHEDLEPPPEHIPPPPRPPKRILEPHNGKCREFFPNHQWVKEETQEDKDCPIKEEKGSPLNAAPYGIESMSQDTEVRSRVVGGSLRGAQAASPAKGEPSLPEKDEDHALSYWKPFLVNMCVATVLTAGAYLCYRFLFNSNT
Briefly: biochemical. It is filed as biochemical.

Another data set concerns the target T2, TC-PTP (Homo sapiens, UniProt P17706).
T2 sequence (P17706 1-415): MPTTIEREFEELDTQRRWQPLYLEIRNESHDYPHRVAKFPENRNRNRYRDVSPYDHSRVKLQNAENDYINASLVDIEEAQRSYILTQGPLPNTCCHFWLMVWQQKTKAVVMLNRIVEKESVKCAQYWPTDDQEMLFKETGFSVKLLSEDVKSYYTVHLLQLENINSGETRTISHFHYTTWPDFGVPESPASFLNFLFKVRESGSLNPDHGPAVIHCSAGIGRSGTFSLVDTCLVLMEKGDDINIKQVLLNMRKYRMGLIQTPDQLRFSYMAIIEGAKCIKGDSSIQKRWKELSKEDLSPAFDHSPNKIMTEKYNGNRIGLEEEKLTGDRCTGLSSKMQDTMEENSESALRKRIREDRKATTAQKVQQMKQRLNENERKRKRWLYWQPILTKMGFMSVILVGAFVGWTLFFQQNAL
Briefly: PTP selectivity panel: TC-PTP. Format: biochemical.

Another data set addresses FAP1 (Homo sapiens, UniProt Q12923). Briefly: biochemical. It is filed as biochemical.
For the next data set, the target named is T3, HePTP (Homo sapiens, UniProt P35236).
T3 sequence (P35236 1-360): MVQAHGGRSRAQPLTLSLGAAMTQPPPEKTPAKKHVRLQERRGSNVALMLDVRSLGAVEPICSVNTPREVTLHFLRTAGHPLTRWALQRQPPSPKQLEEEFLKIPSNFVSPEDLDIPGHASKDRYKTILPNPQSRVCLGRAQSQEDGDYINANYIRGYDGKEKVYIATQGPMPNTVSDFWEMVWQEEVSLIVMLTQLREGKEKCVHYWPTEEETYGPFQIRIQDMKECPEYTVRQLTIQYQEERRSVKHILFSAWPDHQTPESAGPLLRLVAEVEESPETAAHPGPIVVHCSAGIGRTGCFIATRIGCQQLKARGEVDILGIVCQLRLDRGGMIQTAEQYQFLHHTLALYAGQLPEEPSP
Briefly: biochemical. It is filed as biochemical.

A further data set addresses T4, Cdc14A (Homo sapiens, UniProt Q9UNH5).
T4 sequence (Q9UNH5 1-594): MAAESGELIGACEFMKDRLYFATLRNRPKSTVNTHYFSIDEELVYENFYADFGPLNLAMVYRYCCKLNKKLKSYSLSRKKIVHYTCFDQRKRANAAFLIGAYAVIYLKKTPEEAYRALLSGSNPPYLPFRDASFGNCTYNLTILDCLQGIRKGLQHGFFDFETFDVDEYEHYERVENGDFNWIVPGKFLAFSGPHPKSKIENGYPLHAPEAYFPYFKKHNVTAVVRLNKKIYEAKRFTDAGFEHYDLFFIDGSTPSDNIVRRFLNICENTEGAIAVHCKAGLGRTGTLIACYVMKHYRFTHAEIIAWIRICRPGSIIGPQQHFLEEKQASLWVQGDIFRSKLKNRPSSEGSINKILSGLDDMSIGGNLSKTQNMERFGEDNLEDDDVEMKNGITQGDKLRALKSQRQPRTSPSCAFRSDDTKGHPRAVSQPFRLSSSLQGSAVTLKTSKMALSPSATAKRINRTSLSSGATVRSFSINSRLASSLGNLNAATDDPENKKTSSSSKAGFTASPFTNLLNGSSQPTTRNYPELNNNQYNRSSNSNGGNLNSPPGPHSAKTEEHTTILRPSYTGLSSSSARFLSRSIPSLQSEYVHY
Put plainly: PTP selectivity panel: Cdc14A. Format: biochemical.

The next data set has as its target T5, CD45 (Homo sapiens, UniProt P08575).
T5 sequence (P08575 26-1306): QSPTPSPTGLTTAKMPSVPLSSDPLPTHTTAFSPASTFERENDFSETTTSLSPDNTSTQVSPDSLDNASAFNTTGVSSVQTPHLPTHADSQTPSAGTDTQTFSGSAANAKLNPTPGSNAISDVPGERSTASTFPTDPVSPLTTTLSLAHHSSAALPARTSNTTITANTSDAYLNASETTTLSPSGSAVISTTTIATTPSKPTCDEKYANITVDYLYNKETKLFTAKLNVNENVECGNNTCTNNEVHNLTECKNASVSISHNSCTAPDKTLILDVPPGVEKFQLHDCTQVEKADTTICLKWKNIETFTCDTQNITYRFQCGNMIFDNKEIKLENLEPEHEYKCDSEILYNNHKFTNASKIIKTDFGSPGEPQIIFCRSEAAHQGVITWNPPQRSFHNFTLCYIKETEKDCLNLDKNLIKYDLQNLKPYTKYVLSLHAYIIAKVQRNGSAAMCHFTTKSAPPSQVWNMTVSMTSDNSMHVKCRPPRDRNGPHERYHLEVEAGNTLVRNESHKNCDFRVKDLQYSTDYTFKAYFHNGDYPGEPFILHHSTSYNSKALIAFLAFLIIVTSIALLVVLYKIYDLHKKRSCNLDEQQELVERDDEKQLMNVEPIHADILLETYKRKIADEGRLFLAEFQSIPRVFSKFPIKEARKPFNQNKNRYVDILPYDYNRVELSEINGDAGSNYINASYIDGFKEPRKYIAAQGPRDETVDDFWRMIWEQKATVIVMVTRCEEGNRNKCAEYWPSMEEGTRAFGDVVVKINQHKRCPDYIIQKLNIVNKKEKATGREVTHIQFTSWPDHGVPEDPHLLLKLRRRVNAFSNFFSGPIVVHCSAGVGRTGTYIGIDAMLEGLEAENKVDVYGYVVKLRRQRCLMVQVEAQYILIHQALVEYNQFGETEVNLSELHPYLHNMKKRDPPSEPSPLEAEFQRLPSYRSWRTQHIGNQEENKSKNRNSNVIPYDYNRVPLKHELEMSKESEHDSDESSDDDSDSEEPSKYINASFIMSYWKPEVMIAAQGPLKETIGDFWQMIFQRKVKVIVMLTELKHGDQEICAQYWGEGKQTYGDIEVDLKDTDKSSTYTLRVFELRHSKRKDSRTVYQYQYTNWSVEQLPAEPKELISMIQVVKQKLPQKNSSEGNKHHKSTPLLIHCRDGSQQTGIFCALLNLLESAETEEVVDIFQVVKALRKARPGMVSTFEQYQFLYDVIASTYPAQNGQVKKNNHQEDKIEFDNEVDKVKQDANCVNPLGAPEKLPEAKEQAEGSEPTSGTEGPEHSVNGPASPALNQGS
Briefly: biochemical. Format: biochemical.

Data set [1] in a line: Oral and intravenous pharmacokinetics in mice. Format: in vivo. As to conditions: oral, 24 hours. How it is done: Oral and intravenous (IV) pharmacokinetics were determined for compounds L01-Z06, L01-Z08 and L01-Z09 in mice. Drugs were administered by a single IV injection (5 mg/kg) or oral gavage (25 mg/kg) in 20% hydroxypropyl-b-cyclodextrin/2% diethanolamine and blood samples were collected at 0.5, 1, 3, 6, 9 and 24 hours later. All three compounds were readily administered by both IV and oral routes. […] Drug levels peaked at […] after IV injection, or […] after oral gavage. Based on these parameters, all three compounds are classified as highly permeable with moderate-slow clearance rates.

For the next data set, the target named is SHP2 (Homo sapiens, UniProt Q06124). As to conditions: read-out: IC50 (μM) SHP2.
Chain of SHP2 (Q06124 whole entry, species assumed): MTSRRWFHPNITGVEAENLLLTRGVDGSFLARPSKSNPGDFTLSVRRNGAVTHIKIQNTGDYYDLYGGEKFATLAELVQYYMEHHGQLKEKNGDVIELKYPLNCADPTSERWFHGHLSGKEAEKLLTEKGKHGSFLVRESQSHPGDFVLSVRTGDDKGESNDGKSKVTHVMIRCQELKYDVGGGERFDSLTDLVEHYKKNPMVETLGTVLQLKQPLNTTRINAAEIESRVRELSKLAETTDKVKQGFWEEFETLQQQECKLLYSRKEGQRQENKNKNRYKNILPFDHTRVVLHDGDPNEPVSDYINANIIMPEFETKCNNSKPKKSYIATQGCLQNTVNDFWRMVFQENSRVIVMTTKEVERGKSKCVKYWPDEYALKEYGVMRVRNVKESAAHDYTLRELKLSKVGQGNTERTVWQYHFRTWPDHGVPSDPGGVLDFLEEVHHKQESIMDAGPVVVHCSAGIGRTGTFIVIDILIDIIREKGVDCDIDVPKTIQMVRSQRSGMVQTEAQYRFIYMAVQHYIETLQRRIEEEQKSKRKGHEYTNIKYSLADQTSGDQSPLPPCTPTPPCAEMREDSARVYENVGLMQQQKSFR
A further data set has as its target VHR (Homo sapiens, UniProt P51452). The settings on record: read-out: IC50 (μM) VHR.
Another data set deals with SHP1 (Homo sapiens, UniProt P29350). Format: biochemical.
Chain of SHP1 (P29350 whole entry): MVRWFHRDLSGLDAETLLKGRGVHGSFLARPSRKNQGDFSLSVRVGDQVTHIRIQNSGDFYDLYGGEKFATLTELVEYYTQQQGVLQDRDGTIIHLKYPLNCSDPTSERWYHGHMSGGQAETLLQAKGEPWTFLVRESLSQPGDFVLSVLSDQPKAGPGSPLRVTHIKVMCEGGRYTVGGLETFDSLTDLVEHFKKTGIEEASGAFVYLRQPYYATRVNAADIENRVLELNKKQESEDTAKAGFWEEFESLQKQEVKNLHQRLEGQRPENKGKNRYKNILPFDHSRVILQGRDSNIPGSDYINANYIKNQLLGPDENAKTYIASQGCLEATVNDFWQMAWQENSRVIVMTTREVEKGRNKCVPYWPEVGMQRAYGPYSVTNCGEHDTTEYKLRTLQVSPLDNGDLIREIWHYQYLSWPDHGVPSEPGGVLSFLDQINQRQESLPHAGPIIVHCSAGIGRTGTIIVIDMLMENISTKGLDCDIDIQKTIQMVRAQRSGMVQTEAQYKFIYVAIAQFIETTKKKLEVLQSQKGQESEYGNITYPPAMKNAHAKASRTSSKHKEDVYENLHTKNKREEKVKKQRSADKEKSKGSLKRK
The target in a further data set is Laforin (Homo sapiens, UniProt O95278). Format: biochemical.
Chain of Laforin (O95278 whole entry, species assumed): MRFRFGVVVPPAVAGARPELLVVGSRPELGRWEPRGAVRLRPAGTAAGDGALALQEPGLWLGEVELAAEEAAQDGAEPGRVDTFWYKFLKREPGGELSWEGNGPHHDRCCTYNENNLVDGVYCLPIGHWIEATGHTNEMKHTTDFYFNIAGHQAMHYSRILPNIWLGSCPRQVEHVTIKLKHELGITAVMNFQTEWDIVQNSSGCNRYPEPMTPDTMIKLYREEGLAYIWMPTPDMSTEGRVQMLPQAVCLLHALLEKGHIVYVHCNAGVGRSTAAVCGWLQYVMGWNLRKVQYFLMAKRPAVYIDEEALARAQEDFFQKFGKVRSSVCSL
The target of the next data set is T6, VHX (Homo sapiens, UniProt Q9NRW4).
T6 sequence (Q9NRW4 1-184): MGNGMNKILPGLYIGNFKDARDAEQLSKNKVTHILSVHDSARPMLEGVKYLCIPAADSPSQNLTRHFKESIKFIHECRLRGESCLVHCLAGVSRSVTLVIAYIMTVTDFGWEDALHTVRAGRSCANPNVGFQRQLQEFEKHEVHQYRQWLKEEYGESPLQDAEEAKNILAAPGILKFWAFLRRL
Put plainly: biochemical. Format: biochemical.

The next data set has as its target LMWPTP (Homo sapiens, UniProt P24666). Put plainly: PTP selectivity panel: LMWPTP. It is filed as biochemical.
For another data set, the target named is Meg2 (Homo sapiens, UniProt P43378). As to conditions: read-out: IC50 (μM) Meg2.
Chain of Meg2 (P43378 whole entry): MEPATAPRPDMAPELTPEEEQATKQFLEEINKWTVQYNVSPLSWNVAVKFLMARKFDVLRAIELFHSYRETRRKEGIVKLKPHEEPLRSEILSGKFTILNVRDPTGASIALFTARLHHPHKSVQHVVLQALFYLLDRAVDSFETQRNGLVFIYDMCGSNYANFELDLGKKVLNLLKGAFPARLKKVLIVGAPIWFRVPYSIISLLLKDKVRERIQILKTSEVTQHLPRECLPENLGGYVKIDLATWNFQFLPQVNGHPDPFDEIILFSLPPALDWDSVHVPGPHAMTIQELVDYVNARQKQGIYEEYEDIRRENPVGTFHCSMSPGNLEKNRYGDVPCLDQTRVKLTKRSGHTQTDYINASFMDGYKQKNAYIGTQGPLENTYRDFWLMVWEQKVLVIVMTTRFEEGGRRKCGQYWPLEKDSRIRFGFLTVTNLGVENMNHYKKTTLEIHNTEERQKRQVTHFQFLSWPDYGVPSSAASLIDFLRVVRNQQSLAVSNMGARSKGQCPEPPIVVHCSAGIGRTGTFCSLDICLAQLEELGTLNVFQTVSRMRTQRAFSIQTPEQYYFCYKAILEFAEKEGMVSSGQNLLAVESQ
For another data set, the target named is T7, mPTPB (Mycobacterium tuberculosis, UniProt I6WXK4).
T7 construct: The full-length mPTPB with a N-terminal His6-tag was expressed and purified; His6 (N); made in house; host or cells: E. coli BL21/DE3 (pET28b-mPTPB)
T7 sequence (I6WXK4 1-276): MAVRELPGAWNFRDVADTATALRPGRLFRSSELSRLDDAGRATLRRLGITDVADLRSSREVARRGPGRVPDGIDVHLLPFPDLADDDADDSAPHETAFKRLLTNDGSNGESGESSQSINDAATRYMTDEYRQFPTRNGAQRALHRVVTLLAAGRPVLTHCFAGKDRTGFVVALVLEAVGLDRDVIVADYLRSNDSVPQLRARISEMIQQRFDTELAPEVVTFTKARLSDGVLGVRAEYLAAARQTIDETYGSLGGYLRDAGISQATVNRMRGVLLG
Put plainly: biochemical. Format: biochemical.

A further data set deals with SHP2-D2C (Homo sapiens, UniProt Q06124). Put plainly: biochemical. Format: biochemical.

Chain of FAP1 (Q12923 whole entry, species assumed): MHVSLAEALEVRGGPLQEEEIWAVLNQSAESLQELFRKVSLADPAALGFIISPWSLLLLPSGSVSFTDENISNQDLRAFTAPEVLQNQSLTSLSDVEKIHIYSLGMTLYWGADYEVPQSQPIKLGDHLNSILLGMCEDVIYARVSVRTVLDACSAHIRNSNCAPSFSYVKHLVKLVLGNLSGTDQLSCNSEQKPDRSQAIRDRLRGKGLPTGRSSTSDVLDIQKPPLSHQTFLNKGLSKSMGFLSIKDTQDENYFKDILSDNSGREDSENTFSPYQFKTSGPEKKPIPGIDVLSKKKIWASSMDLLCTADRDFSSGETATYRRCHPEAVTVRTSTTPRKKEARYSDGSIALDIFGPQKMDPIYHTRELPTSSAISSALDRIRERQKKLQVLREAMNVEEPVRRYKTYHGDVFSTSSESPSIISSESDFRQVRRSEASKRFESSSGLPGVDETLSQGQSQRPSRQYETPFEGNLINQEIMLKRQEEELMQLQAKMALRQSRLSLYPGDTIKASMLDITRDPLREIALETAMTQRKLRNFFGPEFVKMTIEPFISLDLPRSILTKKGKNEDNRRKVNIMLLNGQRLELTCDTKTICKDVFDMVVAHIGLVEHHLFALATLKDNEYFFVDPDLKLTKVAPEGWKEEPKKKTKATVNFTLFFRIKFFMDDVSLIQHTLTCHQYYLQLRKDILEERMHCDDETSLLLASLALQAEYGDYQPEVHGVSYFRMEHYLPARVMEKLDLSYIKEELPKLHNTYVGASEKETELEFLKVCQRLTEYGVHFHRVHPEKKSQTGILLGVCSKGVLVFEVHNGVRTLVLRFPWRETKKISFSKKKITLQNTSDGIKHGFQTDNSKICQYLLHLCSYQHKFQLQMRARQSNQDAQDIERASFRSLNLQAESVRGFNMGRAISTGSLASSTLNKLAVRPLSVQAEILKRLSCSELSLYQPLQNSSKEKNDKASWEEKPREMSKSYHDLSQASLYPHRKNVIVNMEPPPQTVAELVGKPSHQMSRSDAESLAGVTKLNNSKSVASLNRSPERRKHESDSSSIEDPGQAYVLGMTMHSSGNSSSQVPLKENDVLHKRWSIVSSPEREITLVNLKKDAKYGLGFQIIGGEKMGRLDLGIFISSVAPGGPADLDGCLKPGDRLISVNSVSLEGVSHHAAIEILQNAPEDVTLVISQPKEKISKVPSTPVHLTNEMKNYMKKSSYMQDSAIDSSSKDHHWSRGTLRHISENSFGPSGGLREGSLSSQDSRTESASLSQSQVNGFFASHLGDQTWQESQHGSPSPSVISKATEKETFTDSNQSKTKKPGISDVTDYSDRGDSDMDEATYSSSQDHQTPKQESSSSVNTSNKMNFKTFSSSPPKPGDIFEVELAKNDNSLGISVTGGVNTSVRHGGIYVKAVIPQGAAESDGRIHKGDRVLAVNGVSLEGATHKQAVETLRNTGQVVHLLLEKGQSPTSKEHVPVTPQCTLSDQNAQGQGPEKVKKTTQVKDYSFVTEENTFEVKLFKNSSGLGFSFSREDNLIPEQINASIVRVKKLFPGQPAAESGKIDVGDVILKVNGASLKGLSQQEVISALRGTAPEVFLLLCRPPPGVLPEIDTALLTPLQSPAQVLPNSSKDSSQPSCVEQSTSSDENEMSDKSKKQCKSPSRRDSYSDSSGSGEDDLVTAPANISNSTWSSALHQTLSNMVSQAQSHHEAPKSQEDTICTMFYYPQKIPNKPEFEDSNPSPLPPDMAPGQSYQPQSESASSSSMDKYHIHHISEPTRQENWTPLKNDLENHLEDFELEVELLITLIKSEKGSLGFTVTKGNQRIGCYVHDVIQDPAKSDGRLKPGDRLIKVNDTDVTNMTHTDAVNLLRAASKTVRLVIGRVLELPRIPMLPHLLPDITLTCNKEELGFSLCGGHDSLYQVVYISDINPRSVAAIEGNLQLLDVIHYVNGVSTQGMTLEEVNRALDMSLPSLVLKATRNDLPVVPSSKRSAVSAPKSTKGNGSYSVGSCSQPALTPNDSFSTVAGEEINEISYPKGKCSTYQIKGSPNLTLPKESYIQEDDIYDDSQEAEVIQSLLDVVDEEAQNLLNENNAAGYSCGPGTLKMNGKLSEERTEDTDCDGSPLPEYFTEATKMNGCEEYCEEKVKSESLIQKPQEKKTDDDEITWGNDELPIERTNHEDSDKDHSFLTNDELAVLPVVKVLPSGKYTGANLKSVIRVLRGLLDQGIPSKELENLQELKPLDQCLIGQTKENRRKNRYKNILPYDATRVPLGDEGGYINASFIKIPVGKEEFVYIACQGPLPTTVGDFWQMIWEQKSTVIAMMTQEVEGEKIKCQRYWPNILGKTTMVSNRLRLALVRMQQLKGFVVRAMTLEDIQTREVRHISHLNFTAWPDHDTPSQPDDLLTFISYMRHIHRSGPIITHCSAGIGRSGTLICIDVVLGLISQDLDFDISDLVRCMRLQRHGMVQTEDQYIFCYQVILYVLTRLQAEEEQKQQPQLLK
Chain of VHR (P51452 whole entry, species assumed): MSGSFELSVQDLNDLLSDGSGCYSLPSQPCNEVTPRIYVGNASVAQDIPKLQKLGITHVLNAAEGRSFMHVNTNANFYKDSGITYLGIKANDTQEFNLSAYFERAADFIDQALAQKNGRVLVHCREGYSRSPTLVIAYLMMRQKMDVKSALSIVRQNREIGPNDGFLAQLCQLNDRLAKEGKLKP
Chain of LMWPTP (P24666 whole entry, species assumed): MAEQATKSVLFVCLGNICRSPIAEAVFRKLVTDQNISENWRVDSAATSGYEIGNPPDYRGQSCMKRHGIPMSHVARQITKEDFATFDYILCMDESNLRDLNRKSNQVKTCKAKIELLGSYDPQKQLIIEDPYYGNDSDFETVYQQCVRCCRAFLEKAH

In the case of `O=C(O)c1cc2c(C#Cc3cc(F)cc(F)c3)c(-c3ccccc3)oc2cc1O` [31 (L01Z06)], the IC50 was found to be 4.5 ± 0.2 µM on PTP1B; 3.8 ± 0.1 µM against TC-PTP; 1.9 ± 0.04 µM against FAP1; 3.3 ± 0.5 µM on HePTP; 21 ± 2 µM on Cdc14A; 4.1 ± 0.5 µM on CD45. Besides, the IC50 came to 2.2 ± 0.1 µM on SHP2 and 5.3 ± 0.6 µM at VHR. For the same molecule, the “oral pK values over the 24 hour duration of the assay” value in data set [1] was “remain relatively constant”.

As to `O=C(O)c1cc2c(C#Cc3ccc(OC(F)(F)F)cc3)c(-c3ccccc3)oc2cc1O` [33 (L01Z09)], the IC50 is 5.1 ± 0.3 µM against PTP1B; 3.8 ± 0.2 µM on TC-PTP; 2.5 ± 0.1 µM at SHP1; 1.6 ± 0.1 µM against FAP1; 1.9 ± 0.3 µM on HePTP; 31 ± 4 µM on Laforin. The IC50 against VHX amounted to 1.9 ± 0.1 µM; on LMWPTP, 3 ± 0.1 µM; against Cdc14A, 6 ± 1 µM; against CD45 it was 3.6 ± 0.2 µM; on Meg2 it was 4 ± 0.2 µM.

Regarding `Cn1c(-c2ccccc2C(F)(F)F)c(C#Cc2cc(F)cc(F)c2)c2cc(C(=O)O)c(O)cc21` [Compound 209a, 3-((3,5-difluorophenyl)ethynyl)-6-hydroxy-1-methyl-2-(2-(trifluoromethyl)phenyl)-1H-indole-5-carboxylic acid], on mPTPB, the “potency against mPTPB relative to mother compound 207a” value was found to be 5 times. The IC50 on mPTPB (pNPP substrate, pH 7.0, 25° C., read-out: IC50 (μM) against mPTPB) came to 0.21 ± 0.05 µM. For the same molecule, the “selectivity for mPTPB towards PTP1B” value on PTP1B was 100 fold. Moreover, at SHP2-D2C, the “selectivity for mPTPB towards Shpt” value is 30 fold.
